Drawing on patent US20210269434A1, “TRICYCLIC COMPOUNDS AS INHIBITORS OF KRAS” (Incyte Corporation, priority 2020, published 2021), this text covers IC50 for 19 compounds.

One experiment concerns the target KRAS G12C (Homo sapiens, UniProt P01116, G12C). The experiment is described as follows: GDP-GTP exchange assay (KRAS_G12C exchange). Format: biochemical. The following applies: bodipy-GDP loaded KRAS G12C 2.5 nM, SOS1 150 nM, GppNHp; 2 hours pre-incubation, 2 hours reaction; read-out: G12C_exchange. Summed up:
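Fluorescence exchange of bodipy-GDP for GppNHp, SOS1-driven, read at 485/520 nm; IC50 from four-parameter variable-slope fit. Both mutants used 2.5 nM final labelled protein and a 2 h compound pre-incubation. G12C reaction had 500 uM GppNHp and 150 nM SOS1 for 2 h; G12D ran 4 h.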

The subject of experiment [1] is MIA PaCa-2 (KRAS G12C) cells. Description: Cellular pERK HTRF assay (KRAS_G12C pERK). Type of experiment: cell-based, human. As to conditions: Homo sapiens, MIA PaCa-2, 4 hours incubation, read-out: G12C_pERK. Summed up: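 MIA PaCa-2 cells plated overnight, then exposed to compound for 4 h at 37 °C (G12C compounds). Phospho-ERK1/2 measured in lysates by HTRF (665/620 nm) after overnight antibody incubation; IC50 from percent inhibition versus log concentration.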
(In TR-FRET formats the signal depends on donor and acceptor labels being close together.)

Sequence of KRAS G12C (P01116 1-188 isoform P01116-2 G12C): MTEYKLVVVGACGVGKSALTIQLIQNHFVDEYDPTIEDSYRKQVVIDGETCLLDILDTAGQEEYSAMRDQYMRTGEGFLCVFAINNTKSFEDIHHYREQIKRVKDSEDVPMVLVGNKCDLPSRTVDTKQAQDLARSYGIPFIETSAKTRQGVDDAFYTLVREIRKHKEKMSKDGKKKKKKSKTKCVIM

On to `C=CC(=O)N1CC[C@H](n2nnc3c(O[C@@H](C)CN(C)C)nc4c(F)c(-c5cccc(C)c5C)c(C)cc4c32)C[C@H]1CC#N` [Example 142, 2-((2S,4S)-1-acryloyl-4-(4-(((S)-1-(dimethylamino)propan-2-yl)oxy)-7-(2,3-dimethylphenyl)-6-fluoro-8-methyl-1H-[1,2,3]triazolo[4,5-c]quinolin-1-yl)piperidin-2-yl)acetonitrile], for which the IC50 (at KRAS G12C; in experiment [1]) was no more than 100 nM each time.
With `Cc1cccc(-c2c(C)cc3c(nc(O[C@@H](C)CN(C)C)c4nnn([C@H]5CCN(C(=O)/C=C/CF)[C@H](CC#N)C5)c43)c2F)c1C` [Example 143, 2-((2S,4S)-4-(4-(((S)-1-(dimethylamino)propan-2-yl)oxy)-7-(2,3-dimethylphenyl)-6-fluoro-8-methyl-1H-[1,2,3]triazolo[4,5-c]quinolin-1-yl)-1-((E)-4-fluorobut-2-enoyl)piperidin-2-yl)acetonitrile], the IC50 (at KRAS G12C; in experiment [1]) was no more than 100 nM each time.
As for `Cc1cccc(-c2c(C)cc3c(nc(O[C@@H](C)CN(C)C)c4nnn([C@H]5CCN(C(=O)/C=C/C(F)F)[C@H](CC#N)C5)c43)c2F)c1C` [Example 144, 2-((2S,4S)-1-((E)-4,4-difluorobut-2-enoyl)-4-(4-(((S)-1-(dimethylamino)-propan-2-yl)oxy)-7-(2,3-dimethylphenyl)-6-fluoro-8-methyl-1H-[1,2,3]triazolo[4,5-c]quinolin-1-yl)piperidin-2-yl)acetonitrile], the IC50 (on KRAS G12C; in experiment [1]) was no more than 100 nM each time.
Take `COC/C=C/C(=O)N1CC[C@H](n2nnc3c(O[C@@H](C)CN(C)C)nc4c(F)c(-c5cccc(C)c5C)c(C)cc4c32)C[C@H]1CC#N` [Example 145, 2-((2S,4S)-4-(4-(((S)-1-(dimethylamino)propan-2-yl)oxy)-7-(2,3-dimethylphenyl)-6-fluoro-8-methyl-1H-[1,2,3]triazolo[4,5-c]quinolin-1-yl)-1-((E)-4-methoxybut-2-enoyl)piperidin-2-yl)acetonitrile]: the IC50 (on KRAS G12C; in experiment [1]) was no more than 100 nM throughout.
`CC#CC(=O)N1CC[C@H](n2nnc3c(O[C@@H](C)CN(C)C)nc4c(F)c(-c5cccc(C)c5C)c(C)cc4c32)C[C@H]1CC#N` [Example 146, 2-((2S,4S)-1-(but-2-ynoyl)-4-(4-(((S)-1-(dimethylamino)propan-2-yl)oxy)-7-(2,3-dimethylphenyl)-6-fluoro-8-methyl-1H-[1,2,3]triazolo[4,5-c]quinolin-1-yl)piperidin-2-yl)acetonitrile]: the IC50 (at KRAS G12C; in experiment [1]) was no more than 100 nM throughout.
On to `C=CC(=O)N1CC[C@H](n2nnc3c(N4CC(N(C)C)C4)nc4c(F)c(-c5cccc(C)c5C)c(C)cc4c32)C[C@H]1CC#N` [Example 147, 2-((2S,4S)-1-acryloyl-4-(4-(3-(dimethylamino)azetidin-1-yl)-7-(2,3-dimethylphenyl)-6-fluoro-8-methyl-1H-[1,2,3]triazolo[4,5-c]quinolin-1-yl)piperidin-2-yl)acetonitrile], for which the IC50 (at KRAS G12C; in experiment [1]) was no more than 100 nM throughout.
For the compound `Cc1cccc(-c2c(C)cc3c(nc(N4CC(N(C)C)C4)c4nnn([C@H]5CCN(C(=O)/C=C/C(F)F)[C@H](CC#N)C5)c43)c2F)c1C` [Example 148, 2-((2S,4S)-1-((E)-4,4-difluorobut-2-enoyl)-4-(4-(3-(dimethylamino)azetidin-1-yl)-7-(2,3-dimethylphenyl)-6-fluoro-8-methyl-1H-[1,2,3]triazolo[4,5-c]quinolin-1-yl)piperidin-2-yl)acetonitrile], the IC50 (at KRAS G12C; in experiment [1]) was no more than 100 nM each time.
As for `Cc1cccc(-c2c(Cl)cc3c(nc(N4CC(N(C)C)C4)c4ncn([C@H]5CCN(C(=O)/C=C/CF)[C@H](CC#N)C5)c43)c2F)c1C` [Example 149, 2-((2S,4S)-4-(8-chloro-4-(3-(dimethylamino)azetidin-1-yl)-7-(2,3-dimethylphenyl)-6-fluoro-1H-imidazo[4,5-c]quinolin-1-yl)-1-((E)-4-fluorobut-2-enoyl)piperidin-2-yl)acetonitrile], the IC50 (on KRAS G12C; in experiment [1]) was no more than 100 nM in each case.
Regarding `Cc1nccn1-c1nc2c(F)c(-c3ccccc3)c(Cl)cc2c2c1ncn2[C@H]1CCN(C(=O)/C=C/CN(C)C)[C@H](CC#N)C1` [Example 151, 2-((2S,4S)-4-(8-chloro-6-fluoro-4-(2-methyl-1H-imidazol-1-yl)-7-phenyl-1H-imidazo[4,5-c]quinolin-1-yl)-1-((E)-4-(dimethylamino)but-2-enoyl)piperidin-2-yl)acetonitrile], the IC50 (on KRAS G12C; in experiment [1]) was no more than 100 nM in each case.
Regarding `Cc1nccn1-c1nc2c(F)c(-c3ccccc3)c(Cl)cc2c2c1ncn2[C@H]1CCN(C(=O)/C=C/CF)[C@H](CC#N)C1` [Example 152, 2-((2S,4S)-4-(8-chloro-6-fluoro-4-(2-methyl-1H-imidazol-1-yl)-7-phenyl-1H-imidazo[4,5-c]quinolin-1-yl)-1-((E)-4-fluorobut-2-enoyl)piperidin-2-yl)acetonitrile], the IC50 (on KRAS G12C; in experiment [1]) was no more than 100 nM throughout.
With `Cc1nccn1-c1nc2c(F)c(-c3ccccc3)c(Cl)cc2c2c1nnn2[C@H]1CCN(C(=O)/C=C/CN(C)C)[C@H](CC#N)C1` [Example 153, 2-((2S,4S)-4-(8-chloro-6-fluoro-4-(2-methyl-1H-imidazol-1-yl)-7-phenyl-1H-[1,2,3]triazolo[4,5-c]quinolin-1-yl)-1-((E)-4-(dimethylamino)but-2-enoyl)piperidin-2-yl)acetonitrile], the IC50 (at KRAS G12C; in experiment [1]) was no more than 100 nM in each case.
Regarding `C=CC(=O)N1CC[C@H](n2nnc3c(N4CC(N(C)C)C4)nc4c(F)c(-c5ccccc5)c(Cl)cc4c32)C[C@H]1CC#N` [Example 154, 2-((2S,4S)-1-acryloyl-4-(8-chloro-4-(3-(dimethylamino)azetidin-1-yl)-6-fluoro-7-phenyl-1H-[1,2,3]triazolo[4,5-c]quinolin-1-yl)piperidin-2-yl)acetonitrile], the IC50 (at KRAS G12C; in experiment [1]) was no more than 100 nM throughout.
Take `C=CC(=O)N1CC[C@H](n2nnc3c(OC[C@@H]4CCCN4C)nc4c(F)c(-c5ccccc5)c(Cl)cc4c32)C[C@H]1CC#N` [Example 155, 2-((2S,4S)-1-acryloyl-4-(8-chloro-6-fluoro-4-(((S)-1-methylpyrrolidin-2-yl)methoxy)-7-phenyl-1H-[1,2,3]triazolo[4,5-c]quinolin-1-yl)piperidin-2-yl)acetonitrile]: the IC50 (on KRAS G12C; in experiment [1]) was no more than 100 nM each time.
For the compound `C=CC(=O)N1CC[C@H](n2nnc3c(-n4ccnc4C)nc4c(F)c(-c5ccccc5)c(C)cc4c32)C[C@H]1CC#N` [Example 156, 2-((2S,4S)-1-acryloyl-4-(6-fluoro-8-methyl-4-(2-methyl-1H-imidazol-1-yl)-7-phenyl-1H-[1,2,3]triazolo[4,5-c]quinolin-1-yl)piperidin-2-yl)acetonitrile], the IC50 (on KRAS G12C; in experiment [1]) was no more than 100 nM in each case.
For `Cc1cc2c(nc(OC[C@@H]3CCCN3C)c3nnn([C@H]4CCN(C(=O)/C=C/CN(C)C)[C@H](CC#N)C4)c32)c(F)c1-c1ccccc1C(F)(F)F` [Example 158a, 2-((2S,4S)-1-((E)-4-(dimethylamino)but-2-enoyl)-4-(6-fluoro-8-methyl-4-(((S)-1-methylpyrrolidin-2-yl)methoxy)-7-(2-(trifluoromethyl)phenyl)-1H-[1,2,3]triazolo[4,5-c]quinolin-1-yl)piperidin-2-yl)acetonitrile], the IC50 (on KRAS G12C; in experiment [1]) was no more than 100 nM in each case.
For `Cc1cc2c(nc(OC[C@@H]3CCCN3C)c3nnn([C@H]4CCN(C(=O)/C=C/C(F)F)[C@H](CC#N)C4)c32)c(F)c1-c1ccccc1C(F)(F)F` [Example 161a, 2-((2S,4S)-1-((E)-4,4-difluorobut-2-enoyl)-4-(6-fluoro-8-methyl-4-(((S)-1-methylpyrrolidin-2-yl)methoxy)-7-(2-(trifluoromethyl)phenyl)-1H-[1,2,3]triazolo[4,5-c]quinolin-1-yl)piperidin-2-yl)acetonitrile], the IC50 (at KRAS G12C; in experiment [1]) was no more than 100 nM throughout.
Take `CC#CC(=O)N1CC[C@H](n2nnc3c(OC[C@@H]4CCCN4C)nc4c(F)c(-c5ccccc5C(F)(F)F)c(C)cc4c32)C[C@H]1CC#N` [Example 162a, 2-((2S,4S)-1-(but-2-ynoyl)-4-(6-fluoro-8-methyl-4-(((S)-1-methylpyrrolidin-2-yl)methoxy)-7-(2-(trifluoromethyl)phenyl)-1H-[1,2,3]triazolo[4,5-c]quinolin-1-yl)piperidin-2-yl)acetonitrile]: the IC50 (on KRAS G12C; in experiment [1]) was no more than 100 nM throughout.
With `CC#CC(=O)N1CC[C@H](n2nnc3c(N4CC(N(C)C)C4)nc4c(F)c(-c5ccccc5C(F)(F)F)c(C)cc4c32)C[C@H]1CC#N` [Example 166a, 2-((2S,4S)-1-(but-2-ynoyl)-4-(4-(3-(dimethylamino)-azetidin-1-yl)-6-fluoro-8-methyl-7-(2-(trifluoromethyl)-phenyl)-1H-[1,2,3]triazolo-[4,5-c]quinolin-1-yl)piperidin-2-yl)acetonitrile], the IC50 (at KRAS G12C; in experiment [1]) was no more than 100 nM in each case.
As for `C=CC(=O)N1CC[C@H](n2nnc3c(N4CC(N(C)C)C4)nc4c(F)c(-c5c(C)c(Cl)cc6[nH]ncc56)c(C#N)cc4c32)C[C@H]1CC#N` [Example 169, 1-((2S,4S)-1-acryloyl-2-(cyanomethyl)piperidin-4-yl)-7-(6-chloro-5-methyl-1H-indazol-4-yl)-4-(3-(dimethylamino)azetidin-1-yl)-6-fluoro-1H-[1,2,3]triazolo[4,5-c]quinoline-8-carbonitrile], the IC50 (at KRAS G12C; in experiment [1]) was no more than 100 nM in each case.
